From patent publication US6924311B2, “Methods for affecting various diseases utilizing LXR compounds” (X-Ceptor Therapeutics, Inc., priority 2001, dated 2005)

System: ABCA1 mRNA
Test: ABCA1 mRNA induction in cultured peritoneal macrophages
Format: cell-based, mice
Conditions: 24 hours
Text: The individual contributions of both receptors to macrophage gene expression were examined by first measuring the amount of mRNA encoding LXRα and LXRβ in thioglycolate-elicited peritoneal macrophages obtained from mixed wildtype mice. Thioglycolate-elicited peritoneal macrophages were isolated from mice 4 days after peritoneal injection of thioglycolate media. Peritoneal macrophages were harvested by lavage of the peritoneum with phosphate buffered saline (PBS), cells were washed, transferred to 60 mm culture plates and incubated at 37° C. in RPMI 1640 media (Life Technologies) containing 10% FBS, 2 mmol/L glutamine, 100 μg/mL streptomycin and 100 IU penicillin (Life Technologies). After 5 hours at 37° C., cells were washed 5 times with PBS to remove non-adherent cells and adherent cells were further incubated in RPMI 1640 media supplemented with 10% FBS for 24 hours. To determine the mRNA levels of LXRα and LXRβ, after 24 hours total RNA was isolated from cultured macrophages using RNeasy kits (QIAGEN Inc.) according to the supplier's total RNA isolation procedure. The RNA samples were further treated with deoxyribonuclease I to eliminate contaminating genomic DNA. LXRα and LXRβ mRNA levels were than analyzed by real-time based quantitative PCR using Perkin Elmer ABI Prism 7700 and Sequence Detection System software (Perkin Elmer). […] To further examine LXR-dependent gene expression in macrophages, peritoneal macrophages were isolated as described above from mixed wildtype, LXRα−/− (C57BL/6), LXRβ−/−, and LXRαβ−/− mice. After removal of non-adherent cells, the remaining macrophages were than cultured in either the absence or presence of LXR pan-agonist (1.0 μM Compound 1) for 24 hours. At the end of the experiment total RNA was isolated from cultured macrophages using RNeasy kits (QIAGEN Inc.) according to the supplier's total RNA isolation procedure. RNA samples were further treated with deoxyribonuclease I to eliminate contaminating genomic DNA before use. The LXR agonist-dependent induction of the ABCA1 and ABCG1 mRNAs were than analyzed by real-time based quantitative PCR using Perkin Elmer ABI Prism 7700 and Sequence Detection System software (Perkin Elmer). ABCA1 and ABCG1 function as efflux pumps that mediate the transfer of intracellular cholesterol out of cells to HDL particles, a process referred to as reverse cholesterol transport. […] Elimination of LXRα activity (LXRα−/−) has no effect on the agonist-dependent response. In contrast, elimination of LXRβ activity (LXRβ−/−) reduces the agonist-dependent induction of ABCA1 by 82% and the ABCG1 induction by 50%. […] Thus LXRβ alone is sufficient to allow the maximum induction of ABCA1 and ABCG1 in peritoneal macrophages.

## O=S(=O)(c1ccccc1)N(CC(F)(F)F)c1ccc(C(O)(C(F)(F)F)C(F)(F)F)cc1 [Compound 1, N-(2,2,2-trifluoroethyl)-N-[4-(2,2,2-trifluoro-1-hydroxy-1-trifluoromethylethyl)-phenyl]-benzene sulfonamide]
LXRαβ−/− macrophages, 1.0 μM
  agonist-dependent ABCA1 mRNA induction: completely blocks the response
LXRα−/− macrophages, 1.0 μM
  agonist-dependent ABCA1 mRNA induction: no effect
LXRβ−/− macrophages versus wildtype, 1.0 μM
  reduction of agonist-dependent induction of ABCA1: 82%
Mus musculus, Macrophage, wildtype macrophages
  fold induction at 1 µM: 28
